Data as given in patent US20250255867A1 (Kadmon Corporation, LLC, priority 2022, published 2025).

System: patients with cGVHD
Test: Example 1: pulmonary function (percent predicted FEV1, FVC, DLco, TLC, RV) change from baseline
Format: in vivo, human
Description: Change From Baseline in Percent Predicted Forced Expiratory Volume in 1 Second (FEV1) at Each Specified Time Points. FEV1 was the volume of air exhaled from the lungs in the first second of a forced expiration as measured by spirometer. Baseline value was defined as valid and last non-missing value obtained within 28 days prior to participant receiving first study medication. EOT visit was performed within 3 days after the participant's last dose of study drug. […] Analysis was performed on mITT population. Here, ‘number analyzed’=participants with available data for each specified category. Here, ‘0’ in the number analyzed field signifies that none of the participants were available for the analysis at the specified time points.
Change From Baseline in Percent Predicted Forced Vital Capacity (FVC) at Each Specified Time Points. FVC was the total amount of air (in liters) exhaled from the lungs during the lung function test measured by spirometer which assessed the change in lung function related to the disease status. Baseline value was defined as valid and last non-missing value obtained within 28 days prior to participant receiving first study medication. EOT visit was performed within 3 days after the participant's last dose of study drug. […] Analysis was performed on mITT population. Here, ‘number analyzed’=participants with available data for each specified category. Here, ‘0’ in the number analyzed field signifies that none of the participants were available for the analysis at the specified time points.
Change From Baseline in Percent Predicted Hemoglobin (HGB) Corrected Diffusing Capacity of Lung for Carbon Monoxide (DLco) at Each Specified Time Points. DLco is a measurement of the ability of the lungs to transfer gases from the air to the blood. Change from baseline in diffusing capacity of the lung for carbon monoxide (percent predicted hemoglobin level corrected) was reported for this measure. Baseline value was defined as valid and last non-missing value obtained within 28 days prior to participant receiving first study medication. EOT visit was performed within 3 days after the participant's last dose of study drug. […] Analysis was performed on mITT population. Here, ‘number analyzed’=participants with available data for each specified category. Here, ‘0’ in the number analyzed field signifies that none of the participants were available for the analysis at the specified time points.
Change From Baseline in Percent Predicted Total Lung Capacity (TLC) at Each Specified Time Points. TLC is the volume of air in the lungs upon the maximum effort of inspiration. Baseline value was defined as valid and last non-missing value obtained within 28 days prior to participant receiving first study medication. EOT visit was performed within 3 days after the participant's last dose of study drug. […] Analysis was performed on mITT population. Here, ‘number analyzed’=participants with available data for each specified category.

## CC(C)NC(=O)COc1cccc(-c2nc(Nc3ccc4[nH]ncc4c3)c3ccccc3n2)c1 [Belumosudil, 2-{3-[4-(1H-indazol-5-ylamino)-2-quinazolinyl]phenoxy}-N-(propan-2-yl) acetamide]
Cohort 2: 200 mg BID, Cycle 13, Day 1, n=4
  Change From Baseline in Percent Predicted Residual Volume (RV), Mean (Standard Deviation): −27.0 (35.6) percent predicted RV
Cohort 2: 200 mg BID, Cycle 14, Day 1, n=1
  Change From Baseline in Percent Predicted Residual Volume (RV), Mean (Standard Deviation): −31.0 (—) percent predicted RV
Cohort 2: 200 mg BID, Cycle 15, Day 1, n=3
  Change From Baseline in Percent Predicted Residual Volume (RV), Mean (Standard Deviation): −0.7 (18.1) percent predicted RV
Cohort 2: 200 mg BID, Cycle 16, Day 1, n=2
  Change From Baseline in Percent Predicted Residual Volume (RV), Mean (Standard Deviation): −36.5 (13.4) percent predicted RV
Cohort 2: 200 mg BID, Cycle 17, Day 1, n=3
  Change From Baseline in Percent Predicted Residual Volume (RV), Mean (Standard Deviation): −47.3 (25.1) percent predicted RV
Cohort 2: 200 mg BID, Cycle 18, Day 1, n=2
  Change From Baseline in Percent Predicted Residual Volume (RV), Mean (Standard Deviation): −42.0 (0.0) percent predicted RV
Cohort 2: 200 mg BID, Cycle 19, Day 1, n=3
  Change From Baseline in Percent Predicted Residual Volume (RV), Mean (Standard Deviation): −19.7 (18.0) percent predicted RV
Cohort 2: 200 mg BID, Cycle 20, Day 1, n=2
  Change From Baseline in Percent Predicted Residual Volume (RV), Mean (Standard Deviation): −7.5 (37.5) percent predicted RV
Cohort 2: 200 mg BID, Cycle 21, Day 1, n=1
  Change From Baseline in Percent Predicted Residual Volume (RV), Mean (Standard Deviation): −44.0 (—) percent predicted RV
Cohort 2: 200 mg BID, Cycle 22, Day 1, n=2
  Change From Baseline in Percent Predicted Residual Volume (RV), Mean (Standard Deviation): −33.0 (19.8) percent predicted RV
Cohort 2: 200 mg BID, Cycle 23, Day 1, n=1
  Change From Baseline in Percent Predicted Residual Volume (RV), Mean (Standard Deviation): −72.0 (—) percent predicted RV
Cohort 2: 200 mg BID, Cycle 24, Day 1, n=1
  Change From Baseline in Percent Predicted Residual Volume (RV), Mean (Standard Deviation): −17.0 (—) percent predicted RV
Cohort 2: 200 mg BID, Cycle 25, Day 1, n=2
  Change From Baseline in Percent Predicted Residual Volume (RV), Mean (Standard Deviation): −34.0 (31.1) percent predicted RV
Cohort 2: 200 mg BID, Cycle 27, Day 1, n=2
  Change From Baseline in Percent Predicted Residual Volume (RV), Mean (Standard Deviation): −39.5 (20.5) percent predicted RV
Cohort 2: 200 mg BID, Cycle 29, Day 1, n=1
  Change From Baseline in Percent Predicted Residual Volume (RV), Mean (Standard Deviation): −13.0 (—) percent predicted RV
Cohort 2: 200 mg BID, Cycle 37, Day 1, n=1
  Change From Baseline in Percent Predicted Residual Volume (RV), Mean (Standard Deviation): −70.0 (—) percent predicted RV
Cohort 2: 200 mg BID, Cycle 39, Day 1, n=2
  Change From Baseline in Percent Predicted Residual Volume (RV), Mean (Standard Deviation): −43.0 (42.4) percent predicted RV
Cohort 2: 200 mg BID, Cycle 43, Day 1, n=1
  Change From Baseline in Percent Predicted Residual Volume (RV), Mean (Standard Deviation): −26.0 (—) percent predicted RV
Cohort 2: 200 mg BID, EOT, n=8
  Change From Baseline in Percent Predicted Residual Volume (RV), Mean (Standard Deviation): 10.6 (34.9) percent predicted RV
Cohort 3: 400 mg QD, Cycle 2, Day 1, n=4
  Change From Baseline in Percent Predicted Residual Volume (RV), Mean (Standard Deviation): −18.0 (30.1) percent predicted RV
Cohort 3: 400 mg QD, Cycle 3, Day 1, n=12
  Change From Baseline in Percent Predicted Residual Volume (RV), Mean (Standard Deviation): 9.0 (34.4) percent predicted RV
Cohort 3: 400 mg QD, Cycle 4, Day 1, n=6
  Change From Baseline in Percent Predicted Residual Volume (RV), Mean (Standard Deviation): 17.8 (29.0) percent predicted RV
Cohort 3: 400 mg QD, Cycle 5, Day 1, n=10
  Change From Baseline in Percent Predicted Residual Volume (RV), Mean (Standard Deviation): −3.7 (29.8) percent predicted RV
Cohort 3: 400 mg QD, Cycle 6, Day 1, n=7
  Change From Baseline in Percent Predicted Residual Volume (RV), Mean (Standard Deviation): −10.9 (37.5) percent predicted RV
Cohort 3: 400 mg QD, Cycle 7, Day 1, n=12
  Change From Baseline in Percent Predicted Residual Volume (RV), Mean (Standard Deviation): −7.5 (33.0) percent predicted RV
Cohort 3: 400 mg QD, Cycle 8, Day 1, n=6
  Change From Baseline in Percent Predicted Residual Volume (RV), Mean (Standard Deviation): 2.5 (39.7) percent predicted RV
Cohort 3: 400 mg QD, Cycle 9, Day 1, n=10
  Change From Baseline in Percent Predicted Residual Volume (RV), Mean (Standard Deviation): 0.1 (35.6) percent predicted RV
Cohort 3: 400 mg QD, Cycle 10, Day 1, n=5
  Change From Baseline in Percent Predicted Residual Volume (RV), Mean (Standard Deviation): 1.4 (38.2) percent predicted RV
Cohort 3: 400 mg QD, Cycle 11, Day 1, n=8
  Change From Baseline in Percent Predicted Residual Volume (RV), Mean (Standard Deviation): 5.4 (38.0) percent predicted RV
Cohort 3: 400 mg QD, Cycle 12, Day 1, n=6
  Change From Baseline in Percent Predicted Residual Volume (RV), Mean (Standard Deviation): −22.2 (49.9) percent predicted RV
Cohort 3: 400 mg QD, Cycle 13, Day 1, n=8
  Change From Baseline in Percent Predicted Residual Volume (RV), Mean (Standard Deviation): 0.3 (32.6) percent predicted RV
Cohort 3: 400 mg QD, Cycle 14, Day 1, n=6
  Change From Baseline in Percent Predicted Residual Volume (RV), Mean (Standard Deviation): −6.5 (36.3) percent predicted RV
Cohort 3: 400 mg QD, Cycle 15, Day 1, n=7
  Change From Baseline in Percent Predicted Residual Volume (RV), Mean (Standard Deviation): −16.7 (22.3) percent predicted RV
Cohort 3: 400 mg QD, Cycle 16, Day 1, n=4
  Change From Baseline in Percent Predicted Residual Volume (RV), Mean (Standard Deviation): −27.5 (31.9) percent predicted RV
Cohort 3: 400 mg QD, Cycle 17, Day 1, n=7
  Change From Baseline in Percent Predicted Residual Volume (RV), Mean (Standard Deviation): −39.1 (26.2) percent predicted RV
Cohort 3: 400 mg QD, Cycle 18, Day 1, n=3
  Change From Baseline in Percent Predicted Residual Volume (RV), Mean (Standard Deviation): −7.3 (33.7) percent predicted RV
Cohort 3: 400 mg QD, Cycle 19, Day 1, n=4
  Change From Baseline in Percent Predicted Residual Volume (RV), Mean (Standard Deviation): −23.5 (18.7) percent predicted RV
Cohort 3: 400 mg QD, Cycle 20, Day 1, n=3
  Change From Baseline in Percent Predicted Residual Volume (RV), Mean (Standard Deviation): −22.0 (44.3) percent predicted RV
Cohort 3: 400 mg QD, Cycle 21, Day 1, n=5
  Change From Baseline in Percent Predicted Residual Volume (RV), Mean (Standard Deviation): −30.2 (51.2) percent predicted RV
Cohort 3: 400 mg QD, Cycle 22, Day 1, n=2
  Change From Baseline in Percent Predicted Residual Volume (RV), Mean (Standard Deviation): −41.0 (46.7) percent predicted RV
Cohort 3: 400 mg QD, Cycle 23, Day 1, n=4
  Change From Baseline in Percent Predicted Residual Volume (RV), Mean (Standard Deviation): 1.5 (44.8) percent predicted RV
Cohort 3: 400 mg QD, Cycle 24, Day 1, n=1
  Change From Baseline in Percent Predicted Residual Volume (RV), Mean (Standard Deviation): −78.0 (—) percent predicted RV
Cohort 3: 400 mg QD, Cycle 25, Day 1, n=3
  Change From Baseline in Percent Predicted Residual Volume (RV), Mean (Standard Deviation): −23.3 (56.0) percent predicted RV
Cohort 3: 400 mg QD, Cycle 27, Day 1, n=2
  Change From Baseline in Percent Predicted Residual Volume (RV), Mean (Standard Deviation): −41.0 (28.3) percent predicted RV
Cohort 3: 400 mg QD, Cycle 29, Day 1, n=2
  Change From Baseline in Percent Predicted Residual Volume (RV), Mean (Standard Deviation): 17.5 (40.3) percent predicted RV
Cohort 3: 400 mg QD, Cycle 39, Day 1, n=1
  Change From Baseline in Percent Predicted Residual Volume (RV), Mean (Standard Deviation): 81.0 (—) percent predicted RV
Cohort 3: 400 mg QD, Cycle 43, Day 1, n=1
  Change From Baseline in Percent Predicted Residual Volume (RV), Mean (Standard Deviation): 75.0 (—) percent predicted RV
Cohort 3: 400 mg QD, Cycle 47, Day 1, n=1
  Change From Baseline in Percent Predicted Residual Volume (RV), Mean (Standard Deviation): 87.0 (—) percent predicted RV
Cohort 3: 400 mg QD, Cycle 49, Day 1, n=1
  Change From Baseline in Percent Predicted Residual Volume (RV), Mean (Standard Deviation): −5.0 (—) percent predicted RV
Cohort 3: 400 mg QD, EOT, n=8
  Change From Baseline in Percent Predicted Residual Volume (RV), Mean (Standard Deviation): −18.5 (32.6) percent predicted RV
